Reference: patent publication US6593365B1, “Diflunisal esters and related compounds” (The University of Queensland, priority 1997, dated 2003)
pEC50: −log10 of the molar value. Read-outs that look alike come from different tables or passages of the source. Marks after values point to notes of the source that are not given here.

Experiments:
[1] = tested on: in-situ perfused rat liver; experiment: In-situ rat liver perfusions, hepatic extraction (Example 4); assay type: in vitro ADME; settings: hepatic extraction=1- hepatic availability (F)
Protocol: The hepatic availability (F) for the O-acyl esters of SA and DF was determined using a once through in-situ perfused rat liver preparation (Mellick and Roberts, 1996, J Pharm Pharmacol 48:738-743). Liver was perfused with protein-free Krebs-Henseleit buffer at 30 mL/min for aspirin analogues and with Krebs-Henseleit buffer containing 2% BSA for diflunisal esters studies. Since the solubilities of the diflunisal esters in protein-free media were very low, 2% BSA were used to help to solubilize these compounds. Briefly, 50 μL of a saturated solution of the particular O-acyl SA or DF in Krebs-Henseleit buffer was injected as a bolus into the portal vein cannula. Perfusate outflow samples have collected via a fraction collector over 3 min. 100 μL of these samples was assayed by HPLC to determine the residual concentration of presented ester and the quantity of phenolic metabolite (SA or DF) collected from the perfused liver. The HPLC assay was a modification of the method used by Owen et al. (1987, J Chrom B Biomed Appl 416 293-302) and Rumble et al. (1981, J Chrom 225 252-260).
The hepatic availability (F) was calculated from the ratio of the area under the first moment curve, i.e., outflow concentration time-time profile to the area under the curve for the salicylate phenolic esters, with the assistance of the Moments Calculator 2.2 program for Macintosh computer developed by Robert Purves (1994, J Pharm Sci 83:202-205).

[2] = tested on: in-situ perfused rat liver; experiment: In-situ rat liver perfusions, hepatic availability (Example 2); assay type: in vitro ADME; settings: 30 mL/min, bolus
Protocol: The hepatic availability (Fhepatic) for the O-acyl esters of the salicylic acid and diflunisal was determined using a once through in-situ perfused rat liver preparation (Mellick et al, Unpublished Results).
Protein-free Krebs-Henseleit buffer was perfused at 30 mL/min for aspiring analogues and 2% BSA in Krebs-Henseleit buffer for diflunisal esters (since the solubilities of these latter compounds in protein-free media were very low (Hung et al, supra), 2% BSA were used to increase their solubilities). Briefly, 50 μL aliquots of a saturated solution of the particular O-acyl salicylic acid or diflunisal in Krebs-Henseleit buffer (or with 2% BSA) was injected into the liver with perfusate outflow samples collected via a fraction collector over three minutes. Aliquots (100 μL) from the outflow samples were assayed by HPLC to determine the residual concentration of presented ester and the quantity of phenolic metabolite (salicylic acid or diflunisal) issuing from the perfused liver. The HPLC assay was a modification of the method used by Mellick & Roberts 1996 (Mellick et al, 1996, unpublished results).
The hepatic availability (F) was determined from the outflow concentration versus time profiles for the esters using equation 1, with the assistance of the Moments Calculator 2.2 program for Macintosh computer developed by Robert Purves.
where Q is the perfusate flow rate and D is the dose of aspirin analogues or diflunisal esters administered. The area under the concentration-time curve (AUC) was estimated by the trapezoidal rule integration with appropriate modification for tail (Mellick et al, supra).

[3] = tested on: ischaemic/reperfusion rat livers; experiment: Ischaemic/reperfusion injury in rat livers (LDH release, bile production); design: species or system Female Sprague-Dawley rats; settings: for log 1/C / EC50: C is the ED50 molar dose; for EC50 / pEC50: Rattus norvegicus; for EC50: read-out: log 1/C (converted); for pEC50: molar dose for 50% reduction of LDH release compared to control, 30 min ischaemia, 100 min reperfusion, read-out: ED50 (the source's name)
Protocol: Female Sprague-Dawley rats (220-250 g) were anaesthetised by interperitoneal injection of pentobarbital sodium (60 mg/kg, Boehringer Ingelhein). […] The bile duct was cannulated with a polyethylene tubing (PE-10, I.D. 0.28 mm; Clay Adams, New Jersey) and bile was collected into pre-weighed microcentrifuge tubes at 70 min intervals (in the middle of experiment and the end of experiment). The portal vein was then cannulated using a 16 G intravenous catheter and the liver was perfused via this cannula with 2% BSA Krebs-Henseleit bicarbonate buffer (pH 7.4) and oxygenated using a membrane oxygenator comprising of silastic tubing and ventilated with carbogen (95% O2/5% CO2). The perfusion system used was recirculating and employed a peristaltic pump (Cole-Parmer, Illinois).
Following a 10 min pre-ischaemia perfusion, the perfusion flow was stopped for 30 min at 37° C. with the liver being kept moist. At the end of this ischaemic phase, a known concentration of the aspirin analogue or diflunisal ester's solution (in 2% BSA Krebs-Henseleit buffer) was added into the perfusate prior to the perfusion being resumed for another 100 min. Outflow fractions were collected up to 140 min. A biochemistry autoanalyzer (Hitachi, model 747; Tokyo, Japan) was employed to determine the level of enzyme (LDH) release.
The degree of ischaemic/reperfusion injury was measured by calculating the area under the LDH release ([…]) versus time curve (AUC). […] The efficacy of each compound is expressed in terms of ED50 which represents the molar dose for 50% reduction of LDH release compared to the control. The comparison of bile production between the first stage of experiment (the first 70 min) and the second stage of experiment (the last 70 min) is also used as index of liver function during an experiment.

[4] = tested on: human platelet rich plasma; experiment: Platelet aggregation induced by arachidonic acid; assay type: cell-based; settings: compound 600 µM, 37° C., arachidonic acid 200 µM
Method in brief: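 Citrated human PRP ([…]) preincubated with compound 3–45 min at 37 °C under stirring, then challenged with 200 µM arachidonic acid (final). Aggregation quantified as area under the turbidimetric curve; non-responding samples given 20 µM ADP to verify platelet viability.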

[5] = 2% BSA in Krebs-Henseleit buffer as perfusate
[6] = protein-free Krebs-Henseleit buffer as perfusate

Compound	Hepatic extraction [1, 5]	Hepatic availability (F) [2, 5]	Hepatic extraction [1, 6]	Hepatic availability (F) [2, 6]	log 1/C [3]	Platelet Aggregation (% of control) ([4]; preincubation 3 minutes)	Platelet Aggregation (% of control) ([4]; preincubation 5 minutes)	Platelet Aggregation (% of control) ([4]; preincubation 8 minutes)	Platelet Aggregation (% of control) ([4]; preincubation 10 minutes)	Platelet Aggregation (% of control) ([4]; preincubation 12 minutes)	Platelet Aggregation (% of control) ([4]; preincubation 15 minutes)	Platelet Aggregation (% of control) ([4]; preincubation 20 minutes)	Platelet Aggregation (% of control) ([4]; preincubation 25 minutes)	Platelet Aggregation (% of control) ([4]; preincubation 45 minutes)	EC50 [3] [µM]	pEC50 [3]
CC(=O)Oc1ccc(-c2ccc(F)cc2F)cc1C(=O)O [Compound C2D, acetyldiflunisal]	0.49	0.21	–	–	4.61	92.3 ± 0.5 % of control	67.3 ± 0.9 % of control	27.9 ± 1.1 % of control	0 % of control	0 % of control	0 % of control	0 % of control	0 % of control	0 % of control	–	–
CCCC(=O)Oc1ccc(-c2ccc(F)cc2F)cc1C(=O)O [Compound C4D, n-butanoyldiflunisal]	0.66	0.34	–	–	4.67	96.1 ± 0.3 % of control	90.3 ± 2.1 % of control	73.9 ± 0.7 % of control	57.3 ± 0.1 % of control	31.8 ± 0.4 % of control	0 % of control	0 % of control	0 % of control	0 % of control	–	–
O-acetylsalicylic acid [Compound C2SA, reference compound]	–	–	0.15	0.85	–	0 % of control	0 % of control	0 % of control	0 % of control	0 % of control	0 % of control	0 % of control	0 % of control	0 % of control	–	–
O=C(O)c1cc(-c2ccc(F)cc2F)ccc1O [DF, 2′,4′-difluoro-4-hydroxy-3-biphenylcarboxylic acid, reference compound]	0.38	–	–	–	–	–	–	–	–	–	–	–	–	–	25.1	4.60

Continued, in another order:

Hepatic extraction [1, 5]	Hepatic availability (F) [2, 5]	Hepatic extraction [1, 6]	Hepatic availability (F) [2, 6]	Compound	log 1/C [3]	Platelet Aggregation (% of control) ([4]; preincubation 3 minutes)	Platelet Aggregation (% of control) ([4]; preincubation 5 minutes)	Platelet Aggregation (% of control) ([4]; preincubation 8 minutes)	Platelet Aggregation (% of control) ([4]; preincubation 10 minutes)	Platelet Aggregation (% of control) ([4]; preincubation 12 minutes)	Platelet Aggregation (% of control) ([4]; preincubation 15 minutes)	Platelet Aggregation (% of control) ([4]; preincubation 20 minutes)	Platelet Aggregation (% of control) ([4]; preincubation 25 minutes)	Platelet Aggregation (% of control) ([4]; preincubation 45 minutes)	EC50 [3] [µM]	pEC50 [3]
0.62	0.38	–	–	CCCCC(=O)Oc1ccc(-c2ccc(F)cc2F)cc1C(=O)O [Compound C5D, n-pentanoyldiflunisal]	4.77	97.1 ± 0.1 % of control	95.3 ± 0.7 % of control	90.6 ± 0.9 % of control	87.3 ± 3.1 % of control	75.9 ± 0.1 % of control	57.5 ± 1.7 % of control	0 % of control	0 % of control	0 % of control	–	–
0.62	0.38	–	–	CCCCCC(=O)Oc1ccc(-c2ccc(F)cc2F)cc1C(=O)O [Compound C6D, n-hexanoyldiflunisal]	4.68	97.2 ± 0.2 % of control	94.7 ± 0.3 % of control	93.3 ± 0.2 % of control	90.1 ± 2.1 % of control	89.3 ± 0.1 % of control	71.7 ± 1.9 % of control	45.6 ± 0.5 % of control	0 % of control	0 % of control	–	–
–	–	0.60	0.40	CCCC(=O)Oc1ccccc1C(=O)O [Compound C4SA, n-butanoylsalicylic acid]	–	29.5 ± 1.5^d % of control	0 % of control	0 % of control	0 % of control	0 % of control	0 % of control	0 % of control	0 % of control	0 % of control	49	4.31
–	–	0.74	0.26	CCCCC(=O)Oc1ccccc1C(=O)O [Compound C5SA, n-pentanoylsalicylic acid]	–	63.5 ± 1.5 % of control	41.3 ± 1.1 % of control	0 % of control	0 % of control	0 % of control	0 % of control	0 % of control	0 % of control	0 % of control	34.7	4.46
–	–	0.98	0.02	CCCCCC(=O)Oc1ccccc1C(=O)O [Compound C6SA, n-hexanoylsalicylic acid]	–	90.1 ± 2.2 % of control	70.5 ± 3.1 % of control	39.9 ± 1.1 % of control	0 % of control	0 % of control	0 % of control	0 % of control	0 % of control	0 % of control	28.8	4.54
